Test results from patent US20120232113A1, “METHODS OF TREATING EMESIS USING GROWTH HORMONE SECRETAGOGUES” (HELSINN THERAPEUTICS (U.S.), INC., priority 2007, published 2012).
Square brackets hold non-standard residues; d marks the D form. Ends that are not written are not given here. Peptide text beside a SMILES is read from it. d2Nal = N[C@H](Cc1ccc2ccccc2c1)C(=O)O; Aib = CC(C)(N)C(=O)O

Assays:
[1] = system: ferrets treated with cisplatin; assay: Anti-emetic response assay in ferrets treated with cisplatin; assay type: in vivo, ferret; details: for average vomiting episodes during the 4-hour observation period / average retching episodes during the 4-hour observation period: cisplatin 10 mg/kg i.p., two i.v. injections 30 min apart, ghrelin 0.25, ipamorelin 1.0 mg/kg/dose; for average vomiting episodes during the 4-hour observation period: saline control 1.78; for average retching episodes during the 4-hour observation period: saline control 4.89; for anti-emetic efficacy relative to control animals, conclusion in words: i.v., ghrelin 0.25 mg/kg/dose, ipamorelin 1.0 mg/kg/dose; for onset time of emetic response following cisplatin administration (latent period): vs saline control, 4-hour observation
Excerpt: The purpose of this study was to evaluate the anti-emetic response of Ipamorelin following a single intravenous injection (slow bolus) in ferrets treated with cisplatin.
30 male ferrets (24-weeks old) were used in this experiment. Subsequent to arrival, all animals were subjected to a general physical examination by a qualified member of the veterinary staff to ensure normal health status. An acclimation period of at least one week was allowed between the animal receipt and the start of treatment in order to accustom the animals to the laboratory environment.
Animals were randomized into the following groups:
Dosing occurred on consecutive days with approximately equal numbers of animals from each group being dosed on each day. Immediately following a single intraperitoneal injection of cisplatin, the controUreference/test article was administered via a slow intravenous injection via the cephalic or saphenous vein. Thirty minutes later, a second slow intravenous injection of the controUreference/test article was administered via a slow intravenous injection via the cephalic or saphenous vein. On each occasion, the dose volume was 5 mL/kg (cisplatin as well as control/reference/test article) and the actual dose administered was based on the most recent practical body weight of each animal.
Following dosing, the ferrets were monitored and observed for episodes of emesis for an approximate four hour period, which was subdivided into 10-minute intervals. The time prior to the first episode of retching or vomiting was recorded (latent period), as well the total number of retching and vomiting periods, over each 10-minute interval, through the overall observation period (4 hours post dose).
For the purposes of this study, episodes of emesis were defined as rhythmic abdominal contractions associated with oral expulsion of solid or liquid material from the gastrointestinal tract (i.e. vomiting) or not associated with the passage of material (i.e. retching). An episode of retching and/or vomiting was considered separate when an animal changed position in the cage or when the interval between retches and/or vomits exceeds an approximate 5 second period.
The anti-emetic response was evaluated using the individual observation for: the latent period, the average of retching episodes per 10-minute interval with presence of retching, the average of vomiting episodes per 10-minute interval with presence of vomiting, the total frequency of retching episodes for the observation period, the total frequency of vomiting episodes for the observation period, the total number of 10-minute intervals with presence of retching and the total number of 10-minute intervals with presence of vomiting. Whenever there was no retching or vomiting episode for the whole animal observation period, the latent period was set to 4 hours and the average of retching/vomiting episodes per interval with presence of retching/vomiting was set to zero. Each of these seven parameters was submitted to the following statistical comparison.
The non-parametric Kruskal-Wallis test was used to compare all considered groups. If the Kruskal-Wallis test was significant (p<0.05), then the Saline Control group was compared to each treated group using Dunn's test.

cancer patients [2] = assay: Separate crossover study (3 days treatment), ASAS nausea symptom scale; assay type: in vivo, human
Description: (§1) The effect of RC-1291 administered to cancer patients was compared to the effect of placebo administered to a similar group of patients. In order to determine the ability of RC-1291 to reduce a subject's cancer symptom burden, i.e. Quality-of-Life, subjects were administered the Anderson Symptom Assessment System (ASAS) test prior to, during and at the completion of the study. The ASAS test is conducted by asking subjects to rate on a 0-10 scale the severity of 10 symptoms: pain, fatigue, nausea, depression, anxiety, drowsiness, shortness of breath, appetite, sleep and feeling of well being (see, Palmer et al. (2005) J. Pain and Symptom Management 6:565-571). The text below reflects and inversion of the ASAS scores such that higher values reflect a better Quality-of-Life:
In a separate crossover study, 16 cancer patients were treated with RC-1291 or placebo as described above for 3 days, washed out for ˜5 days and then administered placebo or RC-1291 (whichever one they had not received in the initial 3 day period). 12 of 16 placebo group subjects and 11 of the 16 RC-1291 group subjects were receiving some form of chemotherapy.

cancer patients [3] = assay: 12 week double blind, placebo controlled, randomized parallel study, Anderson Symptom Assessment System (ASAS) test; assay type: in vivo, human; details: 12 weeks
Excerpt: A double blind, placebo controlled, randomized study was designed to investigate the ability of growth hormone secretagogues to be used for the treatment of emetic conditions.
82 human subjects were enrolled in a 12 week parallel study. Of the 82 subjects, 74 subjects were classified in the intent to treat group (ITT). These 74 subjects all had active cancer, received at least one dose of study medication, and had at least one post-dose efficacy measurement. The 74 subjects were separated into two groups: the placebo group and the RC-1291 group. 30 of the 36 placebo group subjects and 33 of the 38 RC-1291 group subjects were receiving some form of chemotherapy. The RC-1291 group received 50 mg of RC-1291 in two 25 mg capsules daily. The placebo group received two capsules daily.
as §1, with “Quality-of-Life: […]” for “Quality-of-Life:”

Row | Compound | average vomiting episodes during the 4-hour observation period [1] | average retching episodes during the 4-hour observation period [1] | anti-emetic efficacy relative to control animals, conclusion in words [1] | onset time of emetic response following cisplatin administration (latent period) [1] | reduction in number of retching episodes compared to saline control animals ([1]; ipamorelin 1.0 mg/kg/dose i.v., p<0.05) [%] | reduction in vomiting episodes relative to saline control animals ([1]; ipamorelin 1.0 mg/kg/dose i.v., p>0.05) | onset of anti-nausea effects (cancer patients [2]) [days] | ASAS nausea symptom scale, overall difference between treatments (cancer patients [2]; RC-1291 vs placebo, p=0.0756) | nausea (ASAS nausea symptom scale), result in words (cancer patients [2]; increased nausea with placebo) | increase in total ASAS score relative to baseline (cancer patients [3]; 50 mg daily in two 25 mg capsules, inverted ASAS scores (higher = better Quality-of-Life), placebo decrease of 5.13) | overall difference in total ASAS score between the two groups (cancer patients [3]; RC-1291 50 mg daily vs placebo, p-0.0287) | ASAS nausea symptom scale, overall difference between treatment groups (cancer patients [3]; RC-1291 50 mg daily vs placebo, p=0.0046)
1 | Ghrelin: ghrelin peptide, reference article in the ferret study (GSSFLSPEHQRVQQRKESKKPPAKLQPR; ends and bridges not checked; UniProt Q9UBU3 24-51, looked up) [reference compound] | 1.60 | 7.00 | did not display a significant efficacy | Neither the onset time nor the numbers of retches or vomits were statistically different |  |  |  |  |  |  |  | 
2 | CC(C)(N)C(=O)N[C@@H](Cc1c[nH]cn1)C(=O)N[C@H](Cc1ccc2ccccc2c1)C(=O)N[C@H](Cc1ccccc1)C(=O)N[C@@H](CCCCN)C(N)=O [Ipamorelin] (H-[Aib]H[d2Nal][dF]K-NH2) | 0.75 | 1.14 | significantly decreased the number of retching episodes | modest, non-statistically significant (p>0.05) delay | 82 | failed to reach statistical significance |  |  |  |  |  | 
3 | CN(C)N(C)C(=O)[C@@]1(Cc2ccccc2)CCCN(C(=O)[C@@H](Cc2c[nH]c3ccccc23)NC(=O)C(C)(C)N)C1 [RC-1291] |  |  |  |  |  |  | ≤ 3 | 0.71 | Decreased nausea | 1.52 | 6.66 | 1.46
